# Data taken from patent publication US20210030870A1, “MODULATION OF P62 AND STING ACTIVITY” (priority 2018, published 2021).
# “Also recorded” adds a separate entry of the source.
# Tests used:
# STING-pathway [1] = assay: TNF-α ELISA on supernatants of peptide-pretreated PBMCs stimulated with STING agonists; assay type: cell-based; conditions: human primary PBMCs, peptide pre-activation (25 μg/ml, 1 hour), co-stimulation with cGAMP or HT-DNA, supernatants after 20 hours
# STING-pathway [2] = assay: CXCL10 ELISA on supernatants of peptide-pretreated PMA-differentiated THP1 cells; assay type: cell-based; conditions: human PMA-differentiated THP1 cells, peptide 10 μg/ml, HT-DNA treatment; listed as SEQ ID NO: 9
# STING-pathway [3] = assay: Functional type I IFN assay (HEK-Blue IFN-α/β reporter) on supernatants of peptide-pretreated PBMCs; assay type: cell-based, human; conditions: for type I IFN: PBMCs, peptide pre-activation (25 μg/ml), co-stimulation with HT-DNA
# STING-pathway [4] = assay: Functional type I IFN assay on supernatants of peptide-pretreated THP1 cells; assay type: cell-based, human; conditions: peptide pre-activation (10 μg/ml), co-stimulation with HT-DNA
# DNA-cGAS STING pathway [5] = assay: Type I IFN bioassay, THP1 cells stimulated with DNA or polyIC with/without PEP302; assay type: cell-based, human
# Procedure: Bioactive human type I IFN was measured on cell supernatants by use of HEK-Blue™ IFN-a/b cells as reporter cells according to the manufacturer instructions (InvivoGen).
# STING = assay: Western blotting of THP1 cells treated with PEP302; assay type: cell-based, human
# Procedure: Whole-cell extracts or immunoprecipitation samples were analyzed by immunoblotting. Samples were diluted in XT sample buffer and XT reducing agent and ran on a SDS—PAGE (Criterion™ TGX™). Trans-Blot Turbo™ Transfer System was used for the transfer of proteins to PVDF membranes (all reagents Bio-Rad). The membrane was blocked in 5% Difco™ skim milk (BD) or 5% bovine serum albumin (BSA) (Sigma). For detection of STING dimerization, samples were prepared for electrophoresis using non-reducing RIPA lysis buffer with 0.2% SDS and complete mini inhibitor (Sigma). The antibodies used for immunoblotting were as follows: rabbit anti-pSTING (S366) (Cell Signaling Technology, #85735), rabbit anti-pTBK1 (Ser172) (Cell Signaling, D52C2/#5483), rabbit anti-phospho p62 (Cell Signalling), Guinea pig anti-p62 (Progen), rabbit anti-STING (Cell Signalling) and mouse anti-b-actin (Abcam, AC-15/ab49900).
# DNA-cGAS STING pathway [6] = assay: CXCL10 ELISA, THP1 cells with PEP302; assay type: cell-based, human; conditions: DNA stimulation
# Procedure: Protein levels of the cytokines CXCL10 and TNF-α in supernatants, were measured using ELISA kits from R and D Systems (CXCL10; DY266) and (TNF-α; DY210) following the manufacturer's instructions.
# [7] = THP1 cells treated with peptide
# [8] = THP1 cells, after DNA and cGAMP stimulation, Western blotting
sequence,measurement,setting,value
"EELTMAMSYVKDDIFRIYIKGRKKRRQRRRPQ (listed as Homo sapiens) [PEP305, PB1 domain fragment peptide of human P62 C-terminally conjugated to TAT]",cytokine response of TNF-alpha,STING-pathway [1],enhance
same,cytokine response of TNF-alpha,STING-pathway [1]; listed as SEQ ID NO: 9,very efficient in increasing
same,CXCL10 expression,STING-pathway [2],very efficient in increasing; also recorded: increase
same,type I Interferon,"STING-pathway [3]; human primary PBMCs, peptide pre-activation (25 μg/ml, 1 hour), co-stimulation with cGAMP or HT-DNA",suppress
"DLCSVCEGKGLHRGHTKLAFGRKKRRQRRRPQ (listed as Homo sapiens) [PEP307, ZZ domain fragment peptide of human P62 C-terminally conjugated to TAT]",type I IFN,STING-pathway [4],significant suppression
same,type I IFN,STING-pathway [4]; listed as SEQ ID NO: 10,capable of reducing
same,type I IFN,STING-pathway [3],significant suppression
same,type I IFN,STING-pathway [3]; listed as SEQ ID NO: 10,capable of reducing
"SLTVKAYLLGKEDAAREIRRGRKKRRQRRRPQ (listed as Homo sapiens) [PEP300, N-terminal fragment peptide of human P62 C-terminally conjugated to TAT]",type I IFN,STING-pathway [4],significant suppression
same,type I IFN,STING-pathway [4]; listed as SEQ ID NO: 8,capable of reducing
same,type I IFN,STING-pathway [3],significant suppression
same,type I IFN,STING-pathway [3]; listed as SEQ ID NO: 8,capable of reducing
"PGPCERLLSRVAALFPALRP GRKKRRQRRRPQ (PGPCERLLSRVAALFPALRPGRKKRRQRRRPQ; listed as Homo sapiens) [PEP302, PB1 domain fragment peptide of human P62]",pathway specificity of type I IFN inhibition (DNA versus polyIC stimulation),DNA-cGAS STING pathway [5]; THP1 cells stimulated with DNA or polyIC with/without peptide,may specifically target the DNA-cGAS STING pathway and not the polylC pathway
same,DNA-activated IFN (type I IFN bioassay),"DNA-cGAS STING pathway [5]; THP1 cells, DNA stimulation",reduces
same,STING dimerization,STING; [7],may induce
same,autophagy (LC3 turnover),STING; [7],may induce; also recorded: seems to constitutively induce
same,p62 dimerization,STING; [7],may induce; also recorded: induce p62 dimerization
same,ubiquitination of STING,STING; THP1 cells treated with peptide alone,may also induce; also recorded: potentially ubiquitination of STING
same,phosphorylation of TBK1,STING; [8],significantly reduced; also recorded: inhibit/reduce
same,phosphorylation of p62,STING; [8],significantly reduced; also recorded: inhibit/reduce
same,phosphorylation of STING,"STING; THP1 cells, after DNA stimulation, Western blotting",can inhibit; also recorded: may inhibit
same,phosphorylation of STING (phospho-STING),"STING; THP1 cells, after cGAMP stimulation, Western blotting",significantly reduce; also recorded: may inhibit
same,DNA-STING-induced CXCL10 production,DNA-cGAS STING pathway [6],reduces; also recorded: can inhibit
